For orientation: melting point means the temperature, or range, at which the solid turns liquid. As a reminder, the inhibition is the percentage by which the read-out fell short of the control.

For series [1], the target named is T1, proTNFα convertase enzyme (TACE) (Homo sapiens, UniProt P78536).
T1 construct: a partially purified, isolated enzyme assay, the enzyme being obtained from the membranes of THP-1; endogenous in cells; host or cells: THP-1 cell membranes (partially purified)
Description: partially purified isolated enzyme assay for proTNFα convertase (TACE) inhibition. The class given is biochemical. To be noted: 10 μM of compound; enzyme from membranes of THP-1. The procedure:
Recombinant human proMMP13 may be expressed and purified as described by Knauper et al. [V. Knauper et al., (1996) […] 271:1544-1550 (1996)]. […] Activity is determined by measuring the fluorescence at λex 328 nm and λem 393 nm. Percent inhibition is calculated as follows: % Inhibition is equal to the [Fluorescenceplus inhibitor−Fluorescencebackground] divided by the [Fluorescenceminus inhibitor−Fluorescencebackground].
The ability of the compounds to inhibit proTNFα convertase enzyme (TACE) may be assessed using a partially purified, isolated enzyme assay, the enzyme being obtained from the membranes of THP-1 as described by K. M. Mohler et al., (1994) Nature 370:218-220. The purified enzyme activity and inhibition thereof is determined by incubating the partially purified enzyme in the presence or absence of test compounds using the substrate 4′,5′-Dimethoxy-fluoresceinyl Ser.Pro.Leu.Ala.Gln.Ala.Val.Arg.Ser.Ser.Ser.Arg.Cys(4-(3-succinimid-1-yl)-fluorescein)-NH2 in assay buffer (50 mM Tris HCl, pH 7.4 containing 0.1% (w/v) Triton X-100 and 2 mM CaCl2), at 26° C. for 4 hours. The amount of inhibition is determined as for MMP13 except λex 485 nm and λem 538 nm were used. […]

T1 sequence (P78536 215-824): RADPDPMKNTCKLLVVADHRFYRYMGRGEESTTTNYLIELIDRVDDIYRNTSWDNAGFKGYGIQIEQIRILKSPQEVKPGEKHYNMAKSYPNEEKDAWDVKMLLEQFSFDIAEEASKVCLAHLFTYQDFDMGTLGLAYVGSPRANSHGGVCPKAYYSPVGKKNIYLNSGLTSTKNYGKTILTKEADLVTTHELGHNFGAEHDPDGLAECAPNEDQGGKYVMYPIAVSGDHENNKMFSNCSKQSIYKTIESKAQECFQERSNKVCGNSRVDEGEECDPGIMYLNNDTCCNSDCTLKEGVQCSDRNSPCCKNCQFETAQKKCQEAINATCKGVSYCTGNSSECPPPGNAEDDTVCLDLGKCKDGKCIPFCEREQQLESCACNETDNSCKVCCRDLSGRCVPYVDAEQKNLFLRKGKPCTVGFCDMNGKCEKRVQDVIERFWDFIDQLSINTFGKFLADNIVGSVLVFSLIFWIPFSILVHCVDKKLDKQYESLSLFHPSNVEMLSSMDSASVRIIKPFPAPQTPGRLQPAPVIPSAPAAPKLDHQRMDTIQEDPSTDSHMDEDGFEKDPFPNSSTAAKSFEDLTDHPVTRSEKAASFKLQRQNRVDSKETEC

`Cc1cc(COC2CCN(S(=O)(=O)CC(C)C(=O)NO)CC2)c2ccccc2n1` (racemic) [Example 12, (R/S)-2-Methyl-3-({4-[(2-methylquinolin-4-yl)methoxy]piperidin-1-yl}sulphonyl)propionic hydroxamic acid] displayed a melting point of 184.7 °C. `O=CN(O)C(CS(=O)(=O)N1CCC(OCc2cccc(F)c2)CC1)c1ccccc1` (racemic) [compound 25, (R/S)-2-({4-[(3-fluorobenzyl)oxy]piperidin-1-yl}sulphonyl)-1-phenylethyl(hydroxy)formamide] displayed an inhibition at 10 µM in series [1] of 97%. Turning to `Cc1ccc(COC2CCN(S(=O)(=O)CC(c3cccnc3)N(O)C=O)CC2)cc1C` (racemic) [compound 42, (R/S)-2-({4-[(3,4-dimethylbenzyl)oxy]piperidin-1-yl}sulphonyl)-1-pyridin-3-ylethyl(hydroxy)formamide], in series [1], the inhibition at 10 µM came out at 99%.

The values above are taken from patent publication US20060142336A1, “N-sulfonylpiperidines as metalloproteinase inhibitors (tace)” (priority 2002, published 2006).
